Measurements as given in patent US10167262B2, “Herbicidal substituted 3-arylpyrazoles” (FMC CORPORATION, priority 2014, dated 2019).

What was measured:
Type in all cases: in vivo
[1] = system: morningglory (Ipomoea spp.); assay: Test A pre-/postemergence greenhouse herbicide test, visual injury rating 0-100
Procedure, shortened: (§1)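 Seeds sown in loam soil–sand blend; preemergence directed soil spray and, simultaneously, postemergence spray on plants 2 to 10 cm tall at one- to two-leaf stage. Compounds formulated in non-phytotoxic solvent mixture with surfactant. Injury rated visually versus untreated controls after ~10 days in greenhouse.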

[2] = system: large (Lg) crabgrass (Digitaria sanguinalis); assay: as above
Procedure, shortened: as §1

[3] = system: giant foxtail (Setaria faberii); assay: as above
Procedure, shortened: as §1

[4] = system: wheat (Triticum aestivum); assay: as above; details: for Plant response rating (0 to 100 scale), Wheat: Postemergence
Procedure, shortened: as §1

corn (Zea mays) = assay: as above
Procedure, shortened: as §1

[5] = system: barnyardgrass (Echinochloa crus-galli); assay: as above
Procedure, shortened: as §1

[6] = system: velvetleaf (Abutilon theophrasti); assay: as above
Procedure, shortened: as §1

[7] = system: pigweed (Amaranthus retroflexus); assay: as above
Procedure, shortened: as §1

[8] = system: chickweed (common chickweed, Stellaria media); assay: Test C postemergence greenhouse test, plant response rating 0-100
Procedure, shortened: (§2)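 Response is a visual 0–100 control rating taken 13 to 15 days post-treatment, with a dash marking no result. Plants ranged 2 to 18 cm when treated postemergence.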

wild oat (Avena fatua) = assay: as above
Procedure, shortened: as §2

kochia (Kochia scoparia) = assay: as above
Procedure, shortened: as §2

[9] = system: morningglory (Ipomoea coccinea); assay: Test C pre-/postemergence greenhouse test, plant response rating 0-100; details: Postemergence
Procedure, shortened: (§3)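 Plants were treated either at seeding (soil of loam and sand) or as 2–18 cm seedlings in a sphagnum peat mix, using test chemicals in a surfactant-containing non-phytotoxic solvent. Visual assessment relative to controls followed 13–15 days later.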

[10] = system: galium (catchweed bedstraw, Galium aparine); assay: as above; details: Postemergence
Procedure, shortened: as §3

SMILES: C=CCn1cc(C(=O)c2ccccc2)c(-c2cc(Cl)cc(Cl)c2)n1 [Compound 60]
- Plant response rating (0 to 100 scale), Morningglory ([1]; Postemergence, 125 g ai/ha): 0
- Plant response rating (0 to 100 scale), Morningglory ([1]; Postemergence, 500 g ai/ha): 0
- Morningglory plant response rating (0 = no effect, 100 = complete control) ([1]; Preemergence, 125 g ai/ha): 0
- Plant response rating (0 to 100 scale), Morningglory ([1]; Preemergence, 500 g ai/ha): 0
- Plant response rating (0 to 100 scale), Crabgrass, Large ([2]; Postemergence, 125 g ai/ha): 0
- Plant response rating (0 to 100 scale), Crabgrass, Large ([2]; Postemergence, 500 g ai/ha): 0
- Crabgrass, Large plant response rating (0 = no effect, 100 = complete control) ([2]; Preemergence, 125 g ai/ha): 0
- Plant response rating (0 to 100 scale), Crabgrass, Large ([2]; Preemergence, 500 g ai/ha): 0
- Plant response rating (0 to 100 scale), Foxtail, Giant ([3]; Postemergence, 125 g ai/ha): 0
- Plant response rating (0 to 100 scale), Foxtail, Giant ([3]; Postemergence, 500 g ai/ha): 0
- Foxtail, Giant plant response rating (0 = no effect, 100 = complete control) ([3]; Preemergence, 125 g ai/ha): 0
- Plant response rating (0 to 100 scale), Foxtail, Giant ([3]; Preemergence, 500 g ai/ha): 0
- Plant response rating (0 to 100 scale), Wheat ([4]; 125 g ai/ha): 0
- Plant response rating (0 to 100 scale), Wheat ([4]; 500 g ai/ha): 0
- Wheat plant response rating (0 = no effect, 100 = complete control) ([4]; Preemergence, 125 g ai/ha): 0
- Plant response rating (0 to 100 scale), Corn (corn (Zea mays); Postemergence, 125 g ai/ha): 0
- Plant response rating (0 to 100 scale), Corn (corn (Zea mays); Postemergence, 500 g ai/ha): 0
- Corn plant response rating (0 = no effect, 100 = complete control) (corn (Zea mays); Preemergence, 125 g ai/ha): 0
- Plant response rating (0 to 100 scale), Corn (corn (Zea mays); Preemergence, 500 g ai/ha): 0
- Plant response rating (0 to 100 scale), Barnyardgrass ([5]; Postemergence, 125 g ai/ha): 0
- Plant response rating (0 to 100 scale), Barnyardgrass ([5]; Postemergence, 500 g ai/ha): 0
- Barnyardgrass plant response rating (0 = no effect, 100 = complete control) ([5]; Preemergence, 125 g ai/ha): 0
- Plant response rating (0 to 100 scale), Barnyardgrass ([5]; Preemergence, 500 g ai/ha): 0
- Plant response rating (0 to 100 scale), Velvetleaf ([6]; Postemergence, 125 g ai/ha): 90
- Plant response rating (0 to 100 scale), Velvetleaf ([6]; Postemergence, 500 g ai/ha): 90
- Velvetleaf plant response rating (0 = no effect, 100 = complete control) ([6]; Preemergence, 125 g ai/ha): 30
- Plant response rating (0 to 100 scale), Velvetleaf ([6]; Preemergence, 500 g ai/ha): 40
- Plant response rating (0 to 100 scale), Pigweed ([7]; Postemergence, 125 g ai/ha): 80
- Plant response rating (0 to 100 scale), Pigweed ([7]; Postemergence, 500 g ai/ha): 90
- Pigweed plant response rating (0 = no effect, 100 = complete control) ([7]; Preemergence, 125 g ai/ha): 60
- Plant response rating (0 to 100 scale), Pigweed ([7]; Preemergence, 500 g ai/ha): 90
- Plant response rating (0 to 100), Chickweed ([8]; 31 g ai/ha): 75
- Plant response rating (0 to 100), Chickweed ([8]; 125 g ai/ha): 100
- Plant response rating, Chickweed ([8]; 250 g ai/ha, scale 0 to 100): 100
- Plant response rating (0 to 100), Oat, Wild (wild oat (Avena fatua); 62 g ai/ha): 0
- Plant response rating (0 to 100), Oat, Wild (wild oat (Avena fatua); 125 g ai/ha): 0
- Plant response rating, Oat, Wild (wild oat (Avena fatua); 250 g ai/ha, scale 0 to 100): 0
- Plant response rating (0 to 100), Kochia (kochia (Kochia scoparia); 62 g ai/ha): 10
- Plant response rating (0 to 100), Kochia (kochia (Kochia scoparia); 125 g ai/ha): 20
- Plant response rating, Kochia (kochia (Kochia scoparia); 250 g ai/ha, scale 0 to 100): 55
- Plant response rating (0 to 100), Morningglory ([9]; 62 g ai/ha): 0
- Plant response rating (0 to 100), Morningglory ([9]; 125 g ai/ha): 0
- Plant response rating, Morningglory ([9]; 250 g ai/ha, scale 0 to 100): 0
- Plant response rating (0 to 100), Galium ([10]; 31 g ai/ha): 0
- Plant response rating (0 to 100), Galium ([10]; 62 g ai/ha): 0
- Plant response rating (0 to 100), Galium ([10]; 125 g ai/ha): 0
- Plant response rating, Galium ([10]; 250 g ai/ha, scale 0 to 100): 0
